From patent publication US20060069132A1, “Azolecarboxamide herbicides” (priority 2004, published 2006)

Key:
barnyardgrass [1] = experiment: Test B pre-/postemergence herbicide test; assay type: in vivo, Echinochloa crus-galli; conditions: for Barnyardgrass plant response rating: postemergence, scale 0 (no effect) to 100 (complete control)
Summary of the method: (§1)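 Flooded paddy rice and barnyardgrass were treated at the 2-leaf stage; upland plantings received compound either on sown seed or on 1- to 4-leaf seedlings. All were kept 13–15 days in a greenhouse and scored visually, 0–100, relative to untreated plants.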

wheat = experiment: Test B postemergence herbicide test; assay type: in vivo, Triticum aestivum; design: key to Wheat plant response rating: 0 = no effect, 100 = complete control; conditions: postemergence, visual rating, scale 0 (no effect) to 100 (complete control)
Summary of the method: (§2)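 Formulated test chemicals went onto postemergence plants measuring 2 to 18 cm, at one to four leaves. For the paddy assay, species had reached two leaves. Scoring took place 13–15 days later by eye, relative to untreated plants, using 0 for no effect up to 100 for full control.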

barnyardgrass [2] = experiment: Test B flooded paddy test; assay type: in vivo, Echinochloa crus-galli; conditions: 1000 g ai/ha, visual rating, scale 0 to 100 (0 no effect, 100 complete control), 13 to 15 days
Summary of the method: (§3)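 After treating 2-leaf paddy plants or 2–18 cm postemergence plants (1 to 4 leaves) with formulated chemical, researchers kept them in a greenhouse for 13–15 days. Effects were judged visually versus controls: 0 indicates none, 100 total control.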

rice [3] = experiment: Test B pre-/postemergence herbicide test; assay type: in vivo, Oryza sativa; conditions: 0 = no effect, 100 = complete control, preemergence
Summary of the method: (§4)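 Seeds were planted and treated preemergence with compounds formulated in a non-phytotoxic solvent mixture containing surfactant, while plants at the 1- to 4-leaf stage (2 to 18 cm) received postemergence sprays. Flooded paddy plants were grown to the 2-leaf stage. After 13 to 15 days in a greenhouse, injury was visually rated 0–100 against untreated controls.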

ducksalad [4] = experiment: Test C flooded paddy test; assay type: in vivo, Heteranthera limosa
morningglory = experiment: Test B pre-/postemergence herbicide test; assay type: in vivo, Ipomoea coccinea; conditions: for Morningglory plant response rating: postemergence, scale 0 (no effect) to 100 (complete control)
Summary of the method: as §1

lambsquarters = experiment: Test B pre-/postemergence herbicide test; assay type: in vivo, Chenopodium album; conditions: for Lambsquarters plant response rating: postemergence, scale 0 (no effect) to 100 (complete control)
Summary of the method: as §4

corn = experiment: Test B pre-/postemergence herbicide test; assay type: in vivo, Zea mays; conditions: for Corn plant response rating: postemergence, scale 0 (no effect) to 100 (complete control)
Summary of the method: as §4

large crabgrass = experiment: Test B pre-/postemergence herbicide test; assay type: in vivo, Digitaria sanguinalis; conditions: for Crabgrass, Large plant response rating: postemergence, scale 0 (no effect) to 100 (complete control)
Summary of the method: as §4

rice [5] = experiment: Test B flooded paddy test; assay type: in vivo, Oryza sativa; conditions: 1000 g ai/ha, visual rating, scale 0 to 100 (0 no effect, 100 complete control), 13 to 15 days
Summary of the method: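 Visual ratings, 0 (no effect) to 100 (complete control), made versus controls after 13–15 d greenhouse. Paddy plants treated at 2-leaf stage; postemergence plants at 1- to 4-leaf stage, 2–18 cm tall.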

barnyardgrass [6] = experiment: Test C flooded paddy test; assay type: in vivo, Echinochloa crus-galli
Summary of the method: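 Greenhouse test with a 12–14 day hold after application and visual comparison with controls. Emerged plants were 1- to 4-leaf stage (2–18 cm) when sprayed postemergence, and the paddy barnyardgrass was at 2 leaves under flooded conditions. 100 = complete control.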

rice [7] = experiment: Test C flooded paddy test; assay type: in vivo, Oryza sativa
Summary of the method: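 Postemergence sprays applied to plants 2 to 18 cm tall (1- to 4-leaf stage); paddy species grown to 2-leaf stage under flooding. After 12 to 14 days in greenhouse, visual rating versus untreated controls on 0–100 scale (0 no effect, 100 complete control).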

Surinam grass = experiment: Test B pre-/postemergence herbicide test; assay type: in vivo, Urochloa decumbens; conditions: for Surinam Grass plant response rating: postemergence, scale 0 (no effect) to 100 (complete control)
Summary of the method: as §4

cocklebur = experiment: Test B pre-/postemergence herbicide test; assay type: in vivo, Xanthium strumarium; conditions: for Cocklebur plant response rating: postemergence, scale 0 (no effect) to 100 (complete control)
Summary of the method: as §1

[8] = system: small flower umbrella sedge; experiment: Test B flooded paddy test; assay type: in vivo, Cyperus difformis; conditions: 1000 g ai/ha, visual rating, scale 0 to 100 (0 no effect, 100 complete control), 13 to 15 days
Summary of the method: as §3

ducksalad [9] = experiment: Test B flooded paddy test; assay type: in vivo, Heteranthera limosa; conditions: 1000 g ai/ha, visual rating, scale 0 to 100 (0 no effect, 100 complete control), 13 to 15 days
Summary of the method: as §3

pigweed = experiment: Test B pre-/postemergence herbicide test; assay type: in vivo, Amaranthus retroflexus; conditions: for Pigweed plant response rating: postemergence, scale 0 (no effect) to 100 (complete control)
Summary of the method: as §4

velvetleaf = experiment: Test B pre-/postemergence herbicide test; assay type: in vivo, Abutilon theophrasti; conditions: for Velvetleaf plant response rating: postemergence, scale 0 (no effect) to 100 (complete control)
Summary of the method: as §4

[10] = system: smallflower umbrella sedge; experiment: Test C flooded paddy test; assay type: in vivo, Cyperus difformis
wild oat = experiment: Test B postemergence herbicide test; assay type: in vivo, Avena fatua; conditions: postemergence, visual rating, scale 0 (no effect) to 100 (complete control)
Summary of the method: as §2

giant foxtail = experiment: Test B pre-/postemergence herbicide test; assay type: in vivo, Setaria faberi; conditions: for Foxtail, Giant plant response rating: postemergence, scale 0 (no effect) to 100 (complete control)
Summary of the method: as §4

blackgrass = experiment: Test B postemergence herbicide test; assay type: in vivo, Alopecurus myosuroides; conditions: postemergence, visual rating, scale 0 (no effect) to 100 (complete control)
Summary of the method: as §3

[11] = 125 g ai/ha, 0 = no effect, 100 = complete control, preemergence
[12] = 500 g ai/ha, visual rating, 0 = no effect, 100 = complete control, preemergence
[13] = 62 g ai/ha, scale 0 to 100 (0 no effect, 100 complete control)
[14] = 125 g ai/ha, scale 0 to 100 (0 no effect, 100 complete control)
[15] = 250 g ai/ha, scale of 0 to 100, 0 is no effect, 100 is complete control
[16] = 500 g ai/ha, visual rating after 12 to 14 days, scale 0 to 100 (0 no effect, 100 complete control)

CCc1nc(C(C)(C)C)sc1C(=O)Nc1cccc(C(=O)N(C)CC)c1 [Compound 229]
Barnyardgrass plant response rating (0 to 100 scale) (barnyardgrass [1]; [11]): 50 | Plant response rating, Barnyardgrass (barnyardgrass [1]; [12]): 90 | Barnyardgrass plant response rating (barnyardgrass [1]; 125 g ai/ha, visual rating): 20 | Barnyardgrass plant response rating (barnyardgrass [1]; 500 g ai/ha, visual rating): 50 | Wheat plant response rating (wheat; 125 g ai/ha): 30 | Wheat plant response rating (wheat; 500 g ai/ha): 40 | Barnyardgrass plant response rating (barnyardgrass [2]): 90 | Rice plant response rating (0 to 100 scale) (rice [3]; 125 g ai/ha): 30 | Plant response rating, Rice (rice [3]; 500 g ai/ha, visual rating): 70 | Ducksalad plant response rating (ducksalad [4]; [13]): 0 | Ducksalad plant response rating (ducksalad [4]; [14]): 0 | Ducksalad plant response rating (ducksalad [4]; [15]): 80 | Plant response rating, Ducksalad (ducksalad [4]; [16]): 85 | Morningglory plant response rating (0 to 100 scale) (morningglory; [11]): 10 | Plant response rating, Morningglory (morningglory; [12]): 20 | Morningglory plant response rating (morningglory; 125 g ai/ha, visual rating): 10 | Morningglory plant response rating (morningglory; 500 g ai/ha, visual rating): 70 | Lambsquarters plant response rating (0 to 100 scale) (lambsquarters; [11]): 90 | Plant response rating, Lambsquarters (lambsquarters; [12]): 100 | Lambsquarters plant response rating (lambsquarters; 125 g ai/ha, visual rating): 70 | Lambsquarters plant response rating (lambsquarters; 500 g ai/ha, visual rating): 80 | Corn plant response rating (0 to 100 scale) (corn; [11]): 10 | Plant response rating, Corn (corn; [12]): 40 | Corn plant response rating (corn; 125 g ai/ha, visual rating): 10 | Corn plant response rating (corn; 500 g ai/ha, visual rating): 20 | Crabgrass, Large plant response rating (0 to 100 scale) (large crabgrass; [11]): 40 | Plant response rating, Crabgrass, Large (large crabgrass; [12]): 100 | Crabgrass, Large plant response rating (large crabgrass; 125 g ai/ha, visual rating): 10 | Crabgrass, Large plant response rating (large crabgrass; 500 g ai/ha, visual rating): 20 | Rice plant response rating (rice [5]): 90 | Barnyardgrass plant response rating (barnyardgrass [6]; [13]): 40 | Barnyardgrass plant response rating (barnyardgrass [6]; [14]): 45 | Barnyardgrass plant response rating (barnyardgrass [6]; [15]): 75 | Plant response rating, Barnyardgrass (barnyardgrass [6]; [16]): 80 | Rice plant response rating (rice [7]; [13]): 35 | Rice plant response rating (rice [7]; [14]): 35 | Rice plant response rating (rice [7]; [15]): 80 | Plant response rating, Rice (rice [7]; [16]): 90 | Surinam Grass plant response rating (0 to 100 scale) (Surinam grass; [11]): 40 | Plant response rating, Surinam Grass (Surinam grass; [12]): 80 | Surinam Grass plant response rating (Surinam grass; 125 g ai/ha, visual rating): 10 | Surinam Grass plant response rating (Surinam grass; 500 g ai/ha, visual rating): 20 | Cocklebur plant response rating (0 to 100 scale) (cocklebur; [11]): 0 | Plant response rating, Cocklebur (cocklebur; [12]): 40 | Cocklebur plant response rating (cocklebur; 125 g ai/ha, visual rating): 20 | Cocklebur plant response rating (cocklebur; 500 g ai/ha, visual rating): 70 | Sedge, Umbrella plant response rating [8]: 80 | Ducksalad plant response rating (ducksalad [9]): 90 | Pigweed plant response rating (0 to 100 scale) (pigweed; [11]): 100 | Plant response rating, Pigweed (pigweed; [12]): 100 | Pigweed plant response rating (pigweed; 125 g ai/ha, visual rating): 60 | Pigweed plant response rating (pigweed; 500 g ai/ha, visual rating): 80 | Velvetleaf plant response rating (0 to 100 scale) (velvetleaf; [11]): 40 | Plant response rating, Velvetleaf (velvetleaf; [12]): 100 | Velvetleaf plant response rating (velvetleaf; 125 g ai/ha, visual rating): 60 | Velvetleaf plant response rating (velvetleaf; 500 g ai/ha, visual rating): 70 | Sedge, Umbrella plant response rating [10, 13]: 30 | Sedge, Umbrella plant response rating [10, 14]: 40 | Sedge, Umbrella plant response rating [10, 15]: 80 | Plant response rating, Sedge, Umbrella [10, 16]: 80 | Oat, Wild plant response rating (wild oat; 125 g ai/ha): 30 | Oat, Wild plant response rating (wild oat; 500 g ai/ha): 50 | Foxtail, Giant plant response rating (0 to 100 scale) (giant foxtail; [11]): 50 | Plant response rating, Foxtail, Giant (giant foxtail; [12]): 80 | Foxtail, Giant plant response rating (giant foxtail; 125 g ai/ha, visual rating): 30 | Foxtail, Giant plant response rating (giant foxtail; 500 g ai/ha, visual rating): 50 | Blackgrass plant response rating (blackgrass; 125 g ai/ha): 30 | Blackgrass plant response rating (blackgrass; 500 g ai/ha): 30
